Experimental data: patent US12409167B2, “Pharmaceutical combination comprising a selective S1P1 receptor agonist” (Vanda Pharmaceuticals Inc., priority 2014, dated 2025)
Counter-ions that a name gives are not always drawn.

Columns and labels:
[1] = system: experimental autoimmune encephalomyelitis (EAE); assay: rat monophasic EAE model, DMF pilot experiment; assay type: in vivo, Female Lewis rats; conditions: first pilot experiment, dose 120 mg/kg q.d. from day 0
Procedure: The efficacy of dimethyl fumarate (DMF) in acute monophasic models of experimental autoimmune encephalomyelitis (EAE) can be determined in a pilot experiment.
Female Lewis rats are immunized with an emulsion of myelin basic protein (MBP) from Guinea pig in complete Freund's adjuvant. A total of 200 micrograms of MBP is injected per rat at two sites subcutaneously (right paw and base of tail). Within 10 days the rats develop signs of paralysis which will be graded on a scale from 0 to 15 assessing the tail and each limb individually according to the method originally described by Weaver A. et al., FASEB J., 2005, 19(12): 1668-1670. The disease takes an acute monophasic course and is self-remitting. Usually by day 21 clinical scores reach values below 3.0.
Groups of 10 to 14 rats are dosed starting at the day of disease induction (day 0) with different doses of DMF in the range between 40 and 160 mg/kg once daily (q.d.). Clinical scores are assessed on a daily basis and disease development is compared between vehicle-treated rats and rats receiving DMF (vehicle: 0.5% Methylcellulose/0.5% Tween® 80). In parallel, body weights of the rats are monitored on a daily basis to follow general health. The experiment is terminated at day 21 whereupon hematology can be measured.
Plasma samples can be taken for compound concentration determination and for the measurement of protein markers. […]

[2] = system: experimental autoimmune encephalomyelitis (EAE); assay: combination efficacy experiment in rat EAE model; assay type: in vivo, Female Lewis rats; conditions: FIG. 1, DMF 120 mg/kg q.d., ponesimod 100 mg/kg q.d., from day 0; for effect on clinical course of EAE (clinical score): n=11/group
Procedure: FIG. 1: Efficacy of ponesimod, DMF or its combination in rat EAE (n=11/group). Clinical scoring was performed daily by an independent examiner in a blinded manner. SEM=standard error of the mean. Female Lewis rats are immunized with an emulsion of myelin basic protein (MBP) from Guinea pig in complete Freund's adjuvant. A total of 200 micrograms of MBP is injected per rat at two sites subcutaneously (right paw and base of tail). Within 10 days the rats develop signs of paralysis which will be graded on a scale from 0 to 15 assessing the tail and each limb individually according to the method originally described by Weaver A. et al., FASEB J., 2005, 19(12): 1668-1670. The disease takes an acute monophasic course and is self-remitting. Usually by day 21 clinical scores reach values below 3.0. Groups of 10 to 14 rats are dosed starting at the day of disease induction (day 0) with different doses of DMF in the range between 40 and 160 mg/kg once daily (q.d.). Clinical scores are assessed on a daily basis and disease development is compared between vehicle-treated rats and rats receiving DMF (vehicle: 0.5% Methylcellulose/0.5% Tween® 80). In parallel, body weights of the rats are monitored on a daily basis to follow general health. The experiment is terminated at day 21 whereupon hematology can be measured. The combination efficacy experiment is performed in the same rat EAE model as described for the first pilot experiment. It consists of four treatment groups: • 1. Vehicle (0.5% Methylcellulose/0.5% Tween® 80) q.d., from day 0 • 2. DMF (120 mg/kg) q.d., from day 0 • 3. Ponesimod (100 mg/kg) q.d., from day 0 • 4. DMF (120 mg/kg) q.d., from day 0+ponesimod (100 mg/kg) q.d., from day 0 In life and termination endpoints are the same as described for the first pilot experiment.

[3] = system: lymphocyte count in peripheral blood; assay: ponesimod pilot experiment, lymphocyte count in peripheral blood; assay type: in vivo; conditions: second pilot experiment, healthy female Lewis rats, dose 100 mg/kg
Procedure: In parallel to the measurement of efficacy of DMF in the EAE model, a second pilot experiment is required. Healthy female Lewis rats will receive ponesimod at different doses in the range from 0.3 to 100 mg/kg. The goal is to assess the dose-effect relationship of ponesimod on lymphocyte count in peripheral blood in this strain of rat.

[4] = system: peripheral blood lymphocytes; conditions: oral administration; cited from earlier work
[5] = system: moderate to severe chronic plaque psoriasis; relapsing-remitting multiple sclerosis; conditions: patients with moderate to severe chronic plaque psoriasis and with relapsing-remitting multiple sclerosis; cited from earlier work

COC(=O)/C=C/C(=O)OC [DMF, dimethyl fumarate]
efficacy on EAE scores [1]: partial efficacy between none and strongest efficacy
effect on clinical score from day 16 onwards ([2]; from day 16 onwards): no effect on clinical score anymore
effect on clinical course of EAE (clinical score) [2]: moderate effect during the ascending phase of the disease

CCC/N=C1\S/C(=C\c2ccc(OC[C@H](O)CO)c(Cl)c2)C(=O)N1c1ccccc1C [ponesimod, (R)-5-[3-chloro-4-(2,3-dihydroxy-propoxy)-benz[Z]ylidene]-2-([Z]-propylimino)-3-o-tolyl-thiazolidin-4-one]
efficacy on lymphocyte count reduction [3]: full efficacy on lymphocyte count reduction
effect on clinical course of EAE (clinical score) [2]: marked and statistically significant effect
number of peripheral blood lymphocytes [4]: consistent, sustained, and dose-dependent reduction
clinical benefit in phase II trials [5]: has shown clinical benefit
